Reference: ChEMBL document CHEMBL1130496, “Synthesis of N-desmethyl PNQX: elaboration into an immunogenic conjugate and a radioiodinated ligand; radioimmunoassay for the AMPA/NMDA antagonist, PNQX” (Bioorg Med Chem Lett, 1997)

Legend:
[1] = biological target: Glutamate receptor ionotropic, NMDA 2C (Rattus norvegicus) (UniProt Q00961); assay: Effective dose required for the action of NMDA receptor activity in maximal electroshock anticonvulsant assay; assay type: functional
[2] = biological target: Glutamate receptor 4 (Homo sapiens) (UniProt P48058); assay: Effective dose required for the action of AMPA receptor antagonistic activity in maximal electroshock anticonvulsant assay; assay type: functional
Sequence of Glutamate receptor 4 (Homo sapiens) (P48058 whole entry): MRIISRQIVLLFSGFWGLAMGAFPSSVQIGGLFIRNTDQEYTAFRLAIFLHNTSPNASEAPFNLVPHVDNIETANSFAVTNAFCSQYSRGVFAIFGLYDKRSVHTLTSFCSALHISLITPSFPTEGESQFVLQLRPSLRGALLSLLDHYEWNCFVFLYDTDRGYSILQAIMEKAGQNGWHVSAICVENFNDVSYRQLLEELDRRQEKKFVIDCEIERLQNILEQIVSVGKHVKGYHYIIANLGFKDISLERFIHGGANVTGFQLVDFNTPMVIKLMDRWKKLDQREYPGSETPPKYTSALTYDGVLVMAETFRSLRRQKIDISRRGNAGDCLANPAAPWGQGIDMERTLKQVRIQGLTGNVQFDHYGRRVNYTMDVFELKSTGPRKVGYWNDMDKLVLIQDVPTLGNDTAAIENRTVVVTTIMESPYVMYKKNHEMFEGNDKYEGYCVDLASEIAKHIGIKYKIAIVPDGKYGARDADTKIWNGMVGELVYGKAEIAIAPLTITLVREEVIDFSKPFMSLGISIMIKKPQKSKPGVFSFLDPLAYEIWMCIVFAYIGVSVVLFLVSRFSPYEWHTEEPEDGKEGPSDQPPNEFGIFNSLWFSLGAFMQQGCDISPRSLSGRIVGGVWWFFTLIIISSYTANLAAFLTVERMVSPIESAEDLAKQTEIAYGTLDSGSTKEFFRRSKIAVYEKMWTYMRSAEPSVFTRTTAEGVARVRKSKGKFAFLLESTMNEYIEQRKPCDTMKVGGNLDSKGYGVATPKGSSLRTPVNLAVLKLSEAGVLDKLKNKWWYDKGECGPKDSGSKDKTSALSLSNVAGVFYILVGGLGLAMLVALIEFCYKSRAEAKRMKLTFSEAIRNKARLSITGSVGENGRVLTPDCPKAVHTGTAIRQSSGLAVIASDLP

Sequence of Glutamate receptor ionotropic, NMDA 2C (Rattus norvegicus) (Q00961 20-1237 limits assumed): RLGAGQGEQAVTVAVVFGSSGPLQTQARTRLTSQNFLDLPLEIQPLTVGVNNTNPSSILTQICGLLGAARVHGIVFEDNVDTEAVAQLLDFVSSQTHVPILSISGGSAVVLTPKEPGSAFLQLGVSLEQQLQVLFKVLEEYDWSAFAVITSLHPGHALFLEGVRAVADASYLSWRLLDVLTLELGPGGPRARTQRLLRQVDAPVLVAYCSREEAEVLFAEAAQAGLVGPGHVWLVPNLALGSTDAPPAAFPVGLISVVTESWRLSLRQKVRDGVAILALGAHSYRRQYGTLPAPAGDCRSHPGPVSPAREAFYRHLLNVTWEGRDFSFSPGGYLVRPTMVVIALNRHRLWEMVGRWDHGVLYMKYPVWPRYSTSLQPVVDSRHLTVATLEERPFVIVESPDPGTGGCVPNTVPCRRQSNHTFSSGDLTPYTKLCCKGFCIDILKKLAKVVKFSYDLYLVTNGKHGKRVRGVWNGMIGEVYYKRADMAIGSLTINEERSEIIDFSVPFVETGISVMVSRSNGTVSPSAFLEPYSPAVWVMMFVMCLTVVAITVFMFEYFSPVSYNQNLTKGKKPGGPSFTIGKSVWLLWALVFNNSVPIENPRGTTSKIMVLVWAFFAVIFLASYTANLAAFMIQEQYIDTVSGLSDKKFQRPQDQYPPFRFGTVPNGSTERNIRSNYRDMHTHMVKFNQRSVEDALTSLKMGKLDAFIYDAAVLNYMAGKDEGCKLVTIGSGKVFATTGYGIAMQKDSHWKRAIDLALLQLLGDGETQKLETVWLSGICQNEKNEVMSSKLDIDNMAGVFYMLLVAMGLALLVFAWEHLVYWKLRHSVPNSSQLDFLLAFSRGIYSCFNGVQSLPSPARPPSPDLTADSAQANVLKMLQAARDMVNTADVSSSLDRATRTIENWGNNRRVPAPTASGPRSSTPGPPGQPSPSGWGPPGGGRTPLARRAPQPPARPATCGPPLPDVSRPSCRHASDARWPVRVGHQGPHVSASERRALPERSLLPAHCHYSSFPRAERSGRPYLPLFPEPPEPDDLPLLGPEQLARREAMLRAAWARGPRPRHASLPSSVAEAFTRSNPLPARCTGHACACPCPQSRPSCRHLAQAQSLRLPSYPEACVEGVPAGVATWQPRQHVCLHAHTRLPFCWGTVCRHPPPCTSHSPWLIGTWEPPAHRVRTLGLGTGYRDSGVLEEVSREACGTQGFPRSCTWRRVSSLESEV

| Structure (SMILES) | ED50 [1] [mg/kg] | ED50 [2] [mg/kg] |
| --- | --- | --- |
| NS(=O)(=O)c1cccc2c1c([N+](=O)[O-])cc1nc(O)c(O)nc12 | 13.1 |  |
| CN1CCc2c([N+](=O)[O-])cc3nc(O)c(O)nc3c2C1 |  | 0.44 |
